Measurements from patent publication US8163287B2, “Combination therapy of her expressing tumors” (Genentech, Inc., priority 2005, dated 2012).

What was measured:
[1] = tested on: human lung, breast and ovarian cancer xenograft models; assay: Antitumor activity in human cancer xenograft models (26 tumor xenografts); format: in vivo, NMRI nu/nu nude mice; settings: for tumors responsive to both erlotinib and pertuzumab: of 26 tumors (12%); for tumors that did not respond to treatment with either pertuzumab or erlotinib: of the 26 tumors tested (42%), pertuzumab i.p. 100 mg/kg, erlotinib orally 25 mg/kg
Excerpt: (§1) The tumor models were established by implanting tumor tissues obtained from human patients into randomized NMRI nu/nu nude mice (Oncotest GmbH, Freiburg, Germany) and tumors were propagated until stable tumor growth behavior was observed. After removal of the tumor from the donor mice, the tumor was cut into fragments (2 mm diameter) and placed in RPMI 1640 culture medium until subcutaneous implantation in the mice. The tumor fragments (two per mouse) were transplanted by tweezers. The mice were monitored daily.
(§2) The substance was diluted with a buffer containing 10 mM L-histidine, 240 mM sucrose, 0.02% polysorbate 20 pH 6 (HCl). The solutions were prepared fresh daily. Erlotinib was delivered as a ready-to-use formulation dissolved in 6% captisol.
Erlotinib was administered orally (25 mg/kg). The control mice received the vehicle by the same procedure and on the same schedule as the test compound.
(§3) The antitumor effect was evaluated following maximum tumor inhibition versus the control group.
Tumor volumes were determined by two-dimensional measurement with a caliper at the day of randomization (day 0) and then 2-3 times weekly. The tumor volume was calculated using the following formula: Tumor Volume=(a×b^2)×0.5,
where a and b represent two perpendicular tumor diameters, a=length (longer diameter), b=width (shorter diameter). All mice of a treatment group were sacrificed when the tumors reached mean diameters of approximately 16 mm.
Relative tumor volumes (RTV) were calculated for each individual tumor, by dividing the tumor volume on day X (Vx) by the tumor volume on day 0 (V0) multiplied by 100%. The tumor volume of a treatment group was expressed as the median RTV of all mice of the group. Median RTV volumes were used for drawing growth curves and treatment evaluation.
Optimal tumor growth inhibition at a particular day within the experimental period was calculated from the median RTV values of the test versus control groups multiplied by 100% (T/C 100%).
Relative tumor volume (Tx/T0) was defined as the median relative tumor volume of the test group on day X divided by the medium relative tumor volume of the test group on day 0, multiplied by 100.
T/C % and Tx/T0 were used for activity rating of the levels of efficacy, which were defined as follows: […]

[2] = tested on: lung adenocarcinoma designated LXFA 629; assay: Antitumor activity in the LXFA 629 xenograft; format: in vivo, NMRI nu/nu nude mice; settings: each agent alone; pertuzumab i.p. 100 mg/kg, erlotinib orally 25 mg/kg
Excerpt: as §1, §2
Erlotinib was administered orally (25 mg/kg). […]
as §3
Tumor volumes were determined by two-dimensional measurement with a caliper at the day of randomization (day 0) and then 2-3 times weekly. The tumor volume was calculated using the following formula: Tumor Volume=(a×b^2)×0.5, […]
Relative tumor volumes (RTV) were calculated for each individual tumor, by dividing the tumor volume on day X (Vx) by the tumor volume on day 0 (V0) multiplied by 100%. The tumor volume of a treatment group was expressed as the median RTV of all mice of the group. […]

[3] = cited from earlier work
[4] = tested on: incurable, locally advanced, recurrent or metastatic solid tumors; settings: cited from earlier work

| Compound | NSCLC tumors that responded to erlotinib but not to pertuzumab ([1]; NSCLC only, of 21 (23%)) [tumors] | NSCLC tumors with no response to pertuzumab or erlotinib monotherapy ([1]; NSCLC only, out of the 21 tumors tested (43%)) [tumors] | tumors responsive to both erlotinib and pertuzumab ([1]; monotherapy) [tumors] | tumors moderately responsive to erlotinib, but not pertuzumab ([1]; monotherapy, of 26 tumors (27%)) [tumors] | tumors that did not respond to treatment with either pertuzumab or erlotinib ([1]; monotherapy) [tumors] | activity rating (response to monotherapy) [2] | NSCLC tumors that responded to pertuzumab but not erlotinib ([1]; NSCLC only, of 21 (14%)) [tumors] | pharmacokinetics (dose linearity) ([3]; doses of 2.0-15 mg/kg) | antibodies to pertuzumab ([3]; patients) | confirmed partial responses ([4]; Phase I, single agent) | tumor regression achieved ([4]; of 20 patients evaluable for response) [patients] | tolerability ([4]; patients, intravenously every 3 weeks) |
| --- | --- | --- | --- | --- | --- | --- | --- | --- | --- | --- | --- | --- |
| C#Cc1cccc(Nc2ncnc3cc(OCCOC)c(OCCOC)cc23)c1 [erlotinib, N-(3-ethynylphenyl)-6,7-bis(2-methoxyethoxy)-4-quinazolinamine] | 5 | 9 | 3 | 7 | 11 | moderate response | – | – | – | – | – | – |
| pertuzumab: antibody comprising the light and heavy chain amino acid sequences of SEQ ID NOS. 11 and 12; HER dimerization inhibitor | – | – | 3 | – | 11 | – | 3 | linear | not detected | Two | 3 | generally well tolerated |
